Measured values taken from patent publication US20260308172A1, “TRICYCLIC COMPOUNDS FOR TREATMENT OF BACTERIAL INFECTIONS” (priority 2023, published 2026).
Values after ≈ are worked out from the molar mass of the structure shown.

Key:
[1] = Human Microsome Stability Assay; type: in vitro ADME; details: human, liver microsomes; 1 μM compound, 0.5 mg/mL liver microsomal protein, 1 mM NADPH, pH 7.4, 37° C., 0-30 minutes; read-out: Clearance of Human microsome
Protocol: The human microsomal stability assay is used for early assessment of metabolic stability of compounds of present invention in human liver microsomes. Human liver microsomes (Cat. NO.: 452117, Corning, USA) were pre-incubated with test compound for 10 minutes at 37° C. in 100 mM potassium phosphate buffer, pH 7.4. The reactions were initiated by adding NADPH regenerating system. The final incubation mixtures contained 1 μM compound, 0.5 mg/mL liver microsomal protein, 1 mM MgCl2 and 1 mM NADPH in 100 mM potassium phosphate buffer, pH 7.4. After incubation times of 0, 3, 6, 9, 15 and 30 minutes at 37° C., 300 μL of cold acetonitrile (including internal standard) was added to 100 μL incubation mixture to terminate the reaction. Following precipitation and centrifugation, the amount of compound remaining in the samples were determined by LC-MS/MS. Controls of no NADPH regenerating system at zero and 30 minutes were also prepared and analyzed.

[2] = system: Klebsiella pneumonia ATCC 43816; experiment: Minimal Inhibitory Concentration (MIC) assay, Klebsiella pneumonia ATCC 43816; type: cell-based; details: Klebsiella pneumoniae, ATCC43816, 20 h, read-out: MIC Klebsiella pneumoniae ATCC43816
Protocol: (§1) The antibacterial activity of the compounds of the present invention was evaluated against the commonly used quality control strain Escherichia coli ATCC 25922 and the rifampin-resistant mutant strain Klebsiella pneumonia ATCC 43816. Both were originally derived from human clinical samples and are available from ATCC (American Type Culture Collection). The in vitro potency of compounds to inhibit Escherichia coli (ATCC 25922) and Klebsiella pneumonia (ATCC 43816) growth was assessed by the MIC (Minimal Inhibitory Concentration) broth dilution method. Specifically compound dilutions were prepared from 10 mM DMSO stock solutions as follows: i) serial 2-fold dilution in 20 μL DMSO were prepared in a master plate (Greiner, Cat No: 651201), ii) 180 μL sterile distilled water was added to each aliquot and iii) 10 μL diluted compounds were transferred into a new assay plate (Costar, 3599).
(§2) Vials of each test microorganisms were maintained frozen in the vapor phase of a liquid nitrogen freezer. Single-use frozen vials of the two strains Escherichia coli ATCC 25922 (KWIKSTIK, 0335K) and Klebsiella pneumonia ATCC 43816, with predetermined CFU/mL, were taken out from the freezer, thawed at room temperature, and diluted in Cation-Adjusted Mueller Hinton Broth (CAMHB) to achieve a final inoculum of 5×10^5 CFU/mL. 90 μL bacteria containing broth was dispensed to the assay plate containing the pre-dispensed compound dilutions and mixed by pipetting 5 times.
(§3) Then the assay plates were incubated for 20 hours at 35° C. in ambient air. Following incubation, the MIC (μg/mL), the lowest concentration of drug that inhibits visible growth of the microorganism was read with the help of a magnification mirror and recorded.

[3] = system: Escherichia coli ATCC 25922; experiment: Minimal Inhibitory Concentration (MIC) assay, Escherichia coli ATCC 25922; type: cell-based; details: ATCC25922, 20 h, read-out: MIC Escherichia coli ATCC25922
Protocol: as §1, §2, §3

NC1CCC(Oc2cc(Cl)nc(N3CCN(S(=O)(=O)c4ccc5c(c4)OC[C@@H]4[C@H](CO)OC(=O)N54)CC3)c2)CC1 (stereo partly drawn) [Example 042, (3R,3aR)-7-[4-[4-(4-aminocyclohexoxy)-6-chloro-2-pyridyl]piperazin-1-yl]sulfonyl-3-(hydroxymethyl)-3a,4-dihydro-3H-oxazolo[4,3-c][1,4]benzoxazin-1-one]
CLint scaled at 1 µM [1]: 6.7 mL/min/kg | MIC [2]: 2.21 µg/mL (≈ 3.72 µM) | MIC [3]: 2.2 µg/mL (≈ 3.7 µM)

NCCCNC(=O)[C@H]1CC[C@H](C(F)(F)c2cc(Cl)nc(N3CCN(S(=O)(=O)c4ccc5c(c4)OCC4C(N)CC(=O)N54)CC3)c2)CC1 (stereo partly shown) [Example 045, 4-[[2-[4-[(3-Amino-1-oxo-2,3,3a,4-tetrahydropyrrolo[2,1-c][1,4]benzoxazin-7-yl)sulfonyl]piperazin-1-yl]-6-chloro-4-pyridyl]-difluoro-methyl]-N-(3-aminopropyl)cyclohexanecarboxamide]
CLint scaled at 1 µM [1]: 8.9 mL/min/kg | MIC [2]: 0.63 µg/mL (≈ 0.905 µM) | MIC [3]: 0.63 µg/mL (≈ 0.905 µM)

NCCCNC(=O)[C@H]1CC[C@H](C(F)(F)c2cc(Cl)nc(N3CCN(S(=O)(=O)c4ccc5c(c4)OC[C@@H]4[C@H](CN)OC(=O)N54)CC3)c2)CC1 (stereo in doubt) [Example 047, 4-[[2-[4-[[cis-3-(aminomethyl)-1-oxo-3a,4-dihydro-3H-oxazolo[4,3-c][1,4]benzoxazin-7-yl]sulfonyl]piperazin-1-yl]-6-chloro-4-pyridyl]-difluoro-methyl]-N-(3-aminopropyl)cyclohexanecarboxamide]
CLint scaled at 1 µM [1]: 7 mL/min/kg | MIC [2]: 0.59 µg/mL (≈ 0.828 µM) | MIC [3]: 0.58 µg/mL (≈ 0.814 µM)

Cc1cc(C(F)(F)F)nc(N2CCN(S(=O)(=O)c3ccc4c(c3)OC[C@H]3[C@H](CN)OC(=O)N43)CC2)n1 (relative stereo) [Example 002]
CLint scaled at 1 µM [1]: 10 mL/min/kg | MIC [2]: 1.32 µg/mL (≈ 2.5 µM) | MIC [3]: 0.66 µg/mL (≈ 1.25 µM)

Cc1cc(C(F)(F)F)nc(N2CCN(S(=O)(=O)c3ccc4c(c3)OCC3CCC(=O)N43)CC2)n1 (stereo not shown) [Example 011, 7-[4-[4-Methyl-6-(trifluoromethyl)pyrimidin-2-yl]piperazin-1-yl]sulfonyl-2,3,3a,4-tetrahydropyrrolo[2,1-c][1,4]benzoxazin-1-one]
MIC [2]: 2.87 µg/mL (≈ 5.77 µM) | MIC [3]: 1.4 µg/mL (≈ 2.81 µM)

CN1CCC(C(F)(F)c2cc(Cl)nc(N3CCN(S(=O)(=O)c4ccc5c(c4)OC[C@H]4[C@@H](CN)OC(=O)N54)CC3)c2)CC1 (stereo in doubt) [Example 010, cis-3-(aminomethyl)-7-[4-[6-chloro-4-[difluoro-(1-methyl-4-piperidyl)methyl]-2-pyridyl]piperazin-1-yl]sulfonyl-3a,4-dihydro-3H-oxazolo[4,3-c][1,4]benzoxazin-1-one]
MIC [2]: 0.98 µg/mL (≈ 1.56 µM) | MIC [3]: 0.98 µg/mL (≈ 1.56 µM)

CC(N)C(=O)N1CC(C(F)(F)c2cc(Cl)nc(N3CCN(S(=O)(=O)c4ccc5c(c4)OC[C@@H]4[C@H](CO)OC(=O)N54)CC3)c2)C1 (stereo partly drawn) [Example 041, (3R,3aR)-7-[4-[4-[[1-(2-aminopropanoyl)azetidin-3-yl]-difluoro-methyl]-6-chloro-2-pyridyl]piperazin-1-yl]sulfonyl-3-(hydroxymethyl)-3a,4-dihydro-3H-oxazolo[4,3-c][1,4]benzoxazin-1-one]
MIC [2]: 2.4 µg/mL (≈ 3.65 µM) | MIC [3]: 2.4 µg/mL (≈ 3.65 µM)

Cc1cc(C(F)(F)c2cc(Cl)nc(N3CCN(S(=O)(=O)c4ccc5c(c4)OC[C@H]4[C@H](CN)OC(=O)N54)CC3)c2)ccn1 (relative stereo) [Example 019]
MIC [2]: 0.28 µg/mL (≈ 0.451 µM) | MIC [3]: 0.29 µg/mL (≈ 0.467 µM)

O=C1O[C@H](CO)[C@@H]2COc3cc(S(=O)(=O)N4CCN(c5cc(C(F)(F)[C@H]6CNCCO6)cc(Cl)n5)CC4)ccc3N12 (stereo in doubt) [Example 032, cis-7-[4-[6-chloro-4-[difluoro-[(2R)-morpholin-2-yl]methyl]-2-pyridyl]piperazin-1-yl]sulfonyl-3-(hydroxymethyl)-3a,4-dihydro-3H-oxazolo[4,3-c][1,4]benzoxazin-1-one]
MIC [2]: 0.241 µg/mL (≈ 0.391 µM) | MIC [3]: 0.24 µg/mL (≈ 0.39 µM)

NC[C@@H]1OC(=O)N2c3ccc(S(=O)(=O)N4CCN(c5cc(S(=O)(=O)C6CC6)cc(Cl)n5)CC4)cc3OC[C@@H]12 (relative stereo) [Example 003]
MIC [2]: 1.94 µg/mL (≈ 3.32 µM) | MIC [3]: 0.97 µg/mL (≈ 1.66 µM)

NC[C@@H]1OC(=O)N2c3ccc(S(=O)(=O)N4CCN(c5cc(C(F)(F)[C@H]6CNCCO6)cc(Cl)n5)CC4)cc3OC[C@@H]12 [Example 023, (3S,3aS)-3-(aminomethyl)-7-[4-[6-chloro-4-[difluoro-[(2R)-morpholin-2-yl]methyl]-2-pyridyl]piperazin-1-yl]sulfonyl-3a,4-dihydro-3H-oxazolo[4,3-c][1,4]benzoxazin-1-one]
MIC [2]: 0.33 µg/mL (≈ 0.537 µM) | MIC [3]: 0.33 µg/mL (≈ 0.537 µM)

NC1CC(=O)N2c3ccc(S(=O)(=O)N4CCN(c5cc(C(F)(F)C6COCCO6)cc(Cl)n5)CC4)cc3OCC12 (stereo not shown) [Example 008, 3-Amino-7-[4-[6-chloro-4-[1,4-dioxan-2-yl(difluoro)methyl]-2-pyridyl]piperazin-1-yl]sulfonyl-2,3,3a,4-tetrahydropyrrolo[2,1-c][1,4]benzoxazin-1-one]
MIC [2]: 0.5 µg/mL (≈ 0.833 µM) | MIC [3]: 0.5 µg/mL (≈ 0.833 µM)

NC(=O)CN1CCC(C(F)(F)c2cc(Cl)nc(N3CCN(S(=O)(=O)c4ccc5c(c4)OC[C@@H]4[C@H](CO)OC(=O)N54)CC3)c2)CC1 [Example 056, 2-[4-[[2-[4-[[(3R,3aR)-3-(hydroxymethyl)-1-oxo-3a,4-dihydro-3H-oxazolo[4,3-c][1,4]benzoxazin-7-yl]sulfonyl]piperazin-1-yl]-6-chloro-4-pyridyl]-difluoro-methyl]-1-piperidyl]acetamide]
MIC [2]: 0.23 µg/mL (≈ 0.343 µM) | MIC [3]: 0.31 µg/mL (≈ 0.462 µM)

NC[C@@H]1OC(=O)N2c3ccc(S(=O)(=O)N4CCN(c5cc(C(F)(F)[C@@H]6COCCO6)cc(Cl)n5)CC4)cc3OC[C@H]12 [Example 022, (3S,3aR)-3-(aminomethyl)-7-[4-[6-chloro-4-[[(2S)-1,4-dioxan-2-yl]-difluoro-methyl]-2-pyridyl]piperazin-1-yl]sulfonyl-3a,4-dihydro-3H-oxazolo[4,3-c][1,4]benzoxazin-1-one]
MIC [2]: 0.3 µg/mL (≈ 0.487 µM) | MIC [3]: 0.44 µg/mL (≈ 0.714 µM)

Cc1cc(C(F)(F)F)nc(N2CCN(S(=O)(=O)c3ccc4c(c3)OC[C@@H]3[C@H](CO)OC(=O)N43)CC2)n1 [Example 015, (3R,3aR)-3-(hydroxymethyl)-7-[4-[4-methyl-6-(trifluoromethyl)pyrimidin-2-yl]piperazin-1-yl]sulfonyl-3a,4-dihydro-3H-oxazolo[4,3-c][1,4]benzoxazin-1-one]
MIC [2]: 0.76 µg/mL (≈ 1.44 µM) | MIC [3]: 0.5 µg/mL (≈ 0.944 µM)

CN1CCC(C(F)(F)c2cc(Cl)nc(N3CCN(S(=O)(=O)c4ccc5c(c4)OCC4CCC(=O)N54)CC3)c2)CC1 (stereo not shown) [Example 016, 7-[4-[6-Chloro-4-[difluoro-(1-methyl-4-piperidyl)methyl]-2-pyridyl]piperazin-1-yl]sulfonyl-2,3,3a,4-tetrahydropyrrolo[2,1-c][1,4]benzoxazin-1-one]
MIC [2]: 1.86 µg/mL (≈ 3.12 µM) | MIC [3]: 1.9 µg/mL (≈ 3.19 µM)

NC[C@H]1OC(=O)N2c3ccc(S(=O)(=O)N4CCN(c5cc(C(F)(F)C6COCCO6)cc(Cl)n5)CC4)cc3OC[C@H]12 (stereo in doubt) [Example 017, trans-3-(aminomethyl)-7-[4-[6-chloro-4-[1,4-dioxan-2-yl(difluoro)methyl]-2-pyridyl]piperazin-1-yl]sulfonyl-3a,4-dihydro-3H-oxazolo[4,3-c][1,4]benzoxazin-1-one]
MIC [2]: 0.57 µg/mL (≈ 0.925 µM) | MIC [3]: 0.57 µg/mL (≈ 0.925 µM)

NCC[N+]1(CCNC(=O)[C@H]2CC[C@H](C(F)(F)c3cc(Cl)nc(N4CCN(S(=O)(=O)c5ccc6c(c5)OC[C@H]5[C@H](CO)OC(=O)N65)CC4)c3)CC2)CCCC1.[Cl-] [Example 064, 4-[[2-[4-[[(3R,3aS)-3-(hydroxymethyl)-1-oxo-3a,4-dihydro-3H-oxazolo[4,3-c][1,4]benzoxazin-7-yl]sulfonyl]piperazin-1-yl]-6-chloro-4-pyridyl]-difluoro-methyl]-N-[2-[1-(2-aminoethyl)pyrrolidin-1-ium-1-yl]ethyl]cyclohexanecarboxamide; chloride]
MIC [2]: 2.85 µg/mL | MIC [3]: 2.8 µg/mL
